Data reported in patent US20250206757A1 (GASHERBRUM BIO, INC., priority 2022, published 2025).

Molecular target: GLP-1 Receptor (Homo sapiens, UniProt P43220)
Assay: GLP-1R agonist cAMP stimulation assay (HEK293/GLP1R/CRE-LUC cells, HTRF cAMP dynamic 2 kit)
Assay type: cell-based
Conditions: HEK293/CRE-Luc cell line stably expressing the GLP-1 Receptor; 30 min incubation at 37° C.
In short: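 HEK293 cells stably expressing GLP-1R with CRE-Luc, 1000 cells/well in DPBS with 0.5 mM IBMX and 0.10% BSA, exposed to half-log compound dilutions for 30 min at 37 °C. cAMP measured by HTRF (665/615 nm) after 1 h at room temperature.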

Sequence of GLP-1 Receptor (P43220 24-463): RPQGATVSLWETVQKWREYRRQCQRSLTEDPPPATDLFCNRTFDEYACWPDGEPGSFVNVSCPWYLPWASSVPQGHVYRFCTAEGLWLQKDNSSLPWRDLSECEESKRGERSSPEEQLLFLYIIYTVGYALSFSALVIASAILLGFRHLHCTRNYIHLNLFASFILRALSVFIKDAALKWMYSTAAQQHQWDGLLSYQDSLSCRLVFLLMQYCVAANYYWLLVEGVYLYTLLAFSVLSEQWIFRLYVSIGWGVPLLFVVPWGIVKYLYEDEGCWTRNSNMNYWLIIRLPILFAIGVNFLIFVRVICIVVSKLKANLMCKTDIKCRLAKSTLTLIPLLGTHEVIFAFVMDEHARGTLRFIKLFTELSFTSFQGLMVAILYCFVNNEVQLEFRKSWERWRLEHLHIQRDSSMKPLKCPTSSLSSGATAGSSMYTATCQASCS

SMILES | EC50 [nM]
Cc1cc2c(nc1OCc1c(F)cc(Cl)cc1F)CN(Cc1nc3cc(-c4nnn[nH]4)ncc3n1C[C@@H]1CCO1)CC2 [Compound 91, 2-[(4-chloro-2,6-difluorophenyl)methoxy]-3-methyl-7-[(3-{[(2S)-oxetan-2-yl]methyl}-6-(1H-1,2,3,4-tetrazol-5-yl)-3H-imidazo[4,5-c]pyridin-2-yl)methyl]-5,6,7,8-tetrahydro-1,7-naphthyridine] | < 1
Cc1cc2c(nc1OCc1c(F)cc(Cl)cc1F)CN(Cc1nc3cc(-c4nnc(C(F)(F)F)[nH]4)cnc3n1C[C@@H]1CCO1)CC2 [Compound 51, 2-[(4-chloro-2,6-difluorophenyl)methoxy]-3-methyl-7-[(3-{1[(2S)-oxetan-2-yl]methyl}-6-[5-(trifluoromethyl)-4H-1,2,4-triazol-3-yl]-3H-imidazo[4,5-b]pyridin-2-yl)methyl]-5,6,7,8-tetrahydro-1,7-naphthyridine] | < 1
Cc1cc2c(nc1NCc1c(F)cc(Cl)cc1F)CN(Cc1nc3cc(-c4noc(=O)[nH]4)ncc3n1C[C@@H]1CCO1)CC2 [Compound 35, 3-{2-[(2-{[(4-chloro-2,6-difluorophenyl)methyl]amino}-3-methyl-5,6,7,8-tetrahydro-1,7-naphthyridin-7-yl)methyl]-3-{[(2S)-oxetan-2-yl]methyl}-3H-imidazo[4,5-c]pyridin-6-yl}-4,5-dihydro-1,2,4-oxadiazol-5-one] | < 1
Fc1cc(Cl)ccc1COc1nc2c(cc1C(F)(F)F)CCN(Cc1nc3cc(-c4nnc(C(F)(F)F)[nH]4)ncc3n1C[C@@H]1CCOC1)C2 [Compound 77, 2-[(4-chloro-2-fluorophenyl)methoxy]-7-[(3-{1[(3S)-oxolan-3-yl]methyl}-6-[5-(trifluoromethyl)-4H-1,2,4-triazol-3-yl]-3H-imidazo[4,5-c]pyridin-2-yl)methyl]-3-(trifluoromethyl)-5,6,7,8-tetrahydro-1,7-naphthyridine] | 1 to 300
CS(=O)(=O)NC(=O)c1ccc2c(c1)nc(CN1CCc3cc(C(F)(F)F)c(OCc4ccc(Cl)cc4F)nc3C1)n2C[C@@H]1CCO1 [Compound 93, 2-({2-[(4-chloro-2-fluorophenyl)methoxy]-3-(trifluoromethyl)-5,6,7,8-tetrahydro-1,7-naphthyridin-7-yl}methyl)-N-methanesulfonyl-1-{[(2S)-oxetan-2-yl]methyl}-1H-1,3-benzodiazole-5-carboxamide] | < 1
Cc1cc2c(nc1OCc1c(F)cc(Cl)cc1F)CN(Cc1nc3cc(-c4nnc(C#N)[nH]4)ncc3n1C[C@@H]1CCO1)CC2 [Compound 40, 5-[2-({2-[(4-chloro-2,6-difluorophenyl)methoxy]-3-methyl-5,6,7,8-tetrahydro-1,7-naphthyridin-7-yl}methyl)-3-{[(2S)-oxetan-2-yl]methyl}-3H-imidazo[4,5-c]pyridin-6-yl]-4H-1,2,4-triazole-3-carbonitrile] | < 1
Fc1cc(Cl)cc(F)c1COc1nc2c(cc1C(F)(F)F)CCN(Cc1nc3cc(-c4nnc(C(F)(F)F)[nH]4)nnc3n1C[C@@H]1CCO1)C2 [Compound 39, 2-[(4-chloro-2,6-difluorophenyl)methoxy]-7-[(7-{[(2S)-oxetan-2-yl]methyl}-3-[5-(trifluoromethyl)-4H-1,2,4-triazol-3-yl]-7H-imidazo[4,5-c]pyridazin-6-yl)methyl]-3-(trifluoromethyl)-5,6,7,8-tetrahydro-1,7-naphthyridine] | < 1

Continued, values first:

EC50 [nM] | SMILES
< 1 | O=c1[nH]c(-c2cc3nc(CN4CCc5cc(C(F)(F)F)c(NCc6c(F)cc(Cl)cc6F)nc5C4)n(C[C@@H]4CCO4)c3cn2)no1 [Compound 105, 3-{2-[(2-{[(4-chloro-2,6-difluorophenyl)methyl]amino}-3-(trifluoromethyl)-5,6,7,8-tetrahydro-1,7-naphthyridin-7-yl)methyl]-3-{[(2S)-oxetan-2-yl]methyl}-3H-imidazo[4,5-c]pyridin-6-yl}-4,5-dihydro-1,2,4-oxadiazol-5-one]
< 1 | O=c1[nH]c(-c2cc3nc(CN4CCc5cc(C(F)(F)F)c(OCc6ccc(Cl)cc6)nc5C4)n(C[C@@H]4CCO4)c3cn2)no1 [Compound 31, 3-[2-({2-[(4-chlorophenyl)methoxy]-3-(trifluoromethyl)-5,6,7,8-tetrahydro-1,7-naphthyridin-7-yl}methyl)-3-{[(2S)-oxetan-2-yl]methyl}-3H-imidazo[4,5-c]pyridin-6-yl]-4,5-dihydro-1,2,4-oxadiazol-5-one]
< 1 | Cc1cc2c(nc1OCc1c(F)cc(Cl)cc1F)CN(Cc1nc3nc(-c4noc(=O)[nH]4)ccc3n1C[C@@H]1CCO1)CC2 [Compound 50, 3-[2-({2-[(4-chloro-2,6-difluorophenyl)methoxy]-3-methyl-5,6,7,8-tetrahydro-1,7-naphthyridin-7-yl}methyl)-1-{1[(2S)-oxetan-2-yl]methyl}-1H-imidazo[4,5-b]pyridin-5-yl]-4,5-dihydro-1,2,4-oxadiazol-5-one]
< 1 | Fc1cc(Cl)ccc1COc1nc2c(cc1C(F)(F)F)CCN(Cc1nc3sc(-c4nnc(C(F)(F)F)[nH]4)cc3n1C[C@@H]1CCO1)C2 [Compound 59, 2-[(4-chloro-2-fluorophenyl)methoxy]-7-[(1-{[(2S)-oxetan-2-yl]methyl}-5-[5-(trifluoromethyl)-4H-1,2,4-triazol-3-yl]-1H-thieno[2,3-d]imidazol-2-yl)methyl]-3-(trifluoromethyl)-5,6,7,8-tetrahydro-1,7-naphthyridine]
< 1 | Cc1cc2c(nc1OCc1c(F)cc(Cl)cc1F)CN(Cc1nc3cc(-c4noc(=O)[nH]4)ccc3n1C[C@@H]1CCO1)CC2 [Compound 37, 3-[2-({2-[(4-chloro-2,6-difluorophenyl)methoxy]-3-methyl-5,6,7,8-tetrahydro-1,7-naphthyridin-7-yl}methyl)-1-{[(2S)-oxetan-2-yl]methyl}-1H-1,3-benzodiazol-5-yl]-4,5-dihydro-1,2,4-oxadiazol-5-one]
< 1 | N#Cc1nnc(-c2cc3nc(CN4CCc5cc(C(F)(F)F)c(OCc6ccc(Cl)cc6F)nc5C4)n(C[C@@H]4CCO4)c3cn2)[nH]1 [Compound 20, 5-[2-({2-[(4-chloro-2-fluorophenyl)methoxy]-3-(trifluoromethyl)-5,6,7,8-tetrahydro-1,7-naphthyridin-7-yl}methyl)-3-{[(2S)-oxetan-2-yl]methyl}-3H-imidazo[4,5-c]pyridin-6-yl]-4H-1,2,4-triazole-3-carbonitrile]
< 1 | Fc1cc(Cl)cc(F)c1COc1nc2c(cc1C(F)(F)F)CCN(Cc1nc3cc(-c4nnn[nH]4)cnc3n1C[C@@H]1CCO1)C2 [Compound 89, 2-[(4-chloro-2,6-difluorophenyl)methoxy]-7-[(3-{[(2S)-oxetan-2-yl]methyl}-6-(11H-1,2,3,4-tetrazol-5-yl)-3H-imidazo[4,5-b]pyridin-2-yl)methyl]-3-(trifluoromethyl)-5,6,7,8-tetrahydro-1,7-naphthyridine]
< 1 | N#Cc1nnc(-c2cc3nc(CN4CCc5cc(Cl)c(OCc6c(F)cc(Cl)cc6F)nc5C4)n(C[C@@H]4CCO4)c3cn2)[nH]1 [Compound 9, 5-[2-({3-chloro-2-[(4-chloro-2,6-difluorophenyl)methoxy]-5,6,7,8-tetrahydro-1,7-naphthyridin-7-yl}methyl)-3-{[(2S)-oxetan-2-yl]methyl}-3H-imidazo[4,5-c]pyridin-6-yl]-4H-1,2,4-triazole-3-carbonitrile]
